# Test results published in US9258954B2, “Plant having enhanced resistance to environmental stress” (RIKEN, priority 2011, dated 2016).
# System: Arabidopsis thaliana L. wild strain (Col-0)
# Settings: 10 mM aqueous acetic acid applied to soil in pot for 9 days; compared to plant without treatment and plant treated with 0.5 mM acetic acid; FIG. 19
# Protocol: hda6 mutant strain (axe 1-5 or sil1) and a parent strain or wild strain thereof were grown in pots at 22° C. under the conditions of 16 hours in the light and 8 hours in the dark for 3 weeks. Thereafter, water supply was terminated and the cultivation was continued at 22° C. and a humidity of 40% under the conditions of 16 hours in the light and 8 hours in the dark for about 2 weeks. In this manner, drought stress was gently given to the strains. After water was supplied again, the strains were grown at 22° C. under the conditions of 16 hours in the light and 8 hours in the dark for 5 days. The number of plants which recovered the growth was counted to determine a survival rate. The experiment was repeated three times using 40 plants per strain per experiment to calculate an average and standard deviation for the survival rate.
compound,measurement,value
CC(=O)O [acetic acid],drought-stress resistance (survival after drought-stress resistance test),remarkably strong drought-stress resistance
